Test results as given in patent EP1984353B1, “AURORA KINASE MODULATORS AND METHOD OF USE” (Amgen, Inc, priority 2006, dated 2007).
Where two headings read alike, the source gives them in different places.

Columns and labels:
AuroraA-TPX2 = target: T1, AuroraA-TPX2 (Homo sapiens, UniProt O14965); test: AuroraA-TPX2 Homogeneous Time Resolved Fluorescent (HTRF) kinase assay; assay type: biochemical; conditions: average, read-out: AurA/TP X2_ IC50_IP (Avg)
T1 construct: 20 µL of AuroraA-TPX2 KD GST; GST
T1 sequence (O14965 133-383 limits assumed): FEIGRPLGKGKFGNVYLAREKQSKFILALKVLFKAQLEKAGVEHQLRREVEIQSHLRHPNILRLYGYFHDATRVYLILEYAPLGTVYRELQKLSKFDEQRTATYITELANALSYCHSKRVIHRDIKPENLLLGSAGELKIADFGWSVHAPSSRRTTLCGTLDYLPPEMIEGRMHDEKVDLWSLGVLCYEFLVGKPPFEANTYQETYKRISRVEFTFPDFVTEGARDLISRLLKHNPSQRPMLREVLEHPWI
T1 sequence (Q9ULW0 1-43 partner limits assumed): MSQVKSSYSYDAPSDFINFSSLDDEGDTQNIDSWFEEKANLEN
Description: AuroraA-TPX2-Homogeneous Time Resolved Fluorescent (HTRF) Kinase Assay:
The Aurora-A HTRF assay begins with Aurora-A in the presence of ATP phosphorylating the biotinylated peptide PLK. The reaction incubates for about 120 min. Detection reagents are added to quench the reaction. These agents stop the reaction by diluting out the enzyme and chelating the metals due to the presence of EDTA. After addition, the assay is incubated overnight to allow the detection reagents to equilibrate.
The final concentration of PLK is about 1 µM. […] Buffer conditions are as follows: 60mM HEPES pH 7.5, 25mM NaCl, 10mM MgCl, 2mM DTT, 0.05% BSA.
(§1) The assay is quenched and stopped with 160 µL, of detection reagent. Detection reagents are as follows: Buffer made of 50mM Tris, pH 7.5, 100mM NaCl, 3mM EDTA, 0.05% BSA, 0.1% Tween20. Added to this buffer prior to reading is Steptavidin allophycocyanin (SA-APC) at a final conc in the assay of 0.0005 mg/mL, and europilated anti-phosphoPLK Ab (Eu-anti-PLK) at a final conc of 0.02 nM.
The assay plate is read in either a Discovery or a RubyStar. The eu-anti-PLK is excited at 320 nm and emits at 615 nm to excite the SA-APC which in turn emits at 655 nm.

AuroraB = target: T2, AuroraB (Homo sapiens, UniProt Q96GD4); test: AuroraB Homogeneous Time Resolved Fluorescent (HTRF) kinase assay; assay type: biochemical; conditions: average, read-out: AurB_ _IC50_IP (Avg)
T2 construct: 20 µL of AuroraB FL His; His
Description: AuroraB-Homogeneous Time Resolved Fluorescent (HTRF) Kinase Assay:
The AuroraB HTRF assay begins with AuroraB in the presence of ATP phosphorylating the biotinylated peptide Histone H3. The reaction incubates for about 90 min. the reaction is quentched by addition of detection reagents, which stop the reaction by diluting out the enzyme and chelating the metals due to the presence of EDTA. After addition, the assay is incubated for about 60 min to allow detection reagents to equilibrate.
The AuroraB HTRF assay comprises 1 µL of compound in 100% DMSO, 20 µL of ATP and biotinylated Histone H3, and 20 µL of AuroraB FL His for a final volume of 41 µL. The final concentration of Histone H3 is 0.1 µM. The final concentration of ATP is 23 µM (Km(app) = 23 µM+/-2.6) and the final concentration of AuroraB is 400 pM. Buffer conditions are as follows: 50mM HEPES pH 7.5, 5mM NaCl, 0.5mM MgCl, 0.5mM MnCl, 2mM DTT, 0.05% BSA.
as §1, with “µL” for “µL,”, “0.001” for “0.0005”, “anti-phosphoHistoneH3” for “anti-phosphoPLK”, “(Eu-anti-HisH3)” for “(Eu-anti-PLK)”, “0.064” for “0.02”
The assay plate is read in either a Discovery or a RubyStar. The eu-anti-HisH3 is excited at 320 nm and emits at 615 nm to excite the SA-APC which in turn emits at 655 nm. The ratio of SA-APC at 655 nm (excited due to close proximity to the Eu-anti-HisH3 because of phosphorylation of the peptide) to free Eu-anti-HisH3 at 615 nm will give substrate phosphorylation.

[1] = given as numbers, unit inferred

T2 sequence (Q96GD4 whole entry): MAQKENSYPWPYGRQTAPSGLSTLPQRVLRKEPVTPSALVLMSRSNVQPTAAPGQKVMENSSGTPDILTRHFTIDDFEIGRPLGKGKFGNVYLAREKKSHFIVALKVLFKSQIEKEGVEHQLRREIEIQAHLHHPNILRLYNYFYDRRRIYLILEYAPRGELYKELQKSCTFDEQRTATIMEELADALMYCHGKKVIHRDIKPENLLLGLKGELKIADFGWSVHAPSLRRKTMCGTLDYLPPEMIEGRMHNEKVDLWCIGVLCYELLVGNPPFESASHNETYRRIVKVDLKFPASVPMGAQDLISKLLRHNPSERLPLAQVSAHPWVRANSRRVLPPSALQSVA

Row | IC50 (AuroraA-TPX2; [1]) | IC50 (AuroraB; [1]) | IC50 (AuroraA-TPX2; given as class symbols) | IC50 (AuroraB; given as class symbols) | Compound
1 | 149 nM | 1.8 nM |  |  | C[C@@H](O)c1ccc(-c2nnc(Nc3ccc(Oc4ncccc4-c4ccnc(N)n4)cc3)c3ccccc23)cc1 [compound 256, (1R)-1-(4-(4-((4-((3-(2-amino-4-pyrimidinyl)-2-pyridinyl)oxy)phenyl)amino)-1-phthalazinyl)phenyl)ethanol]
2 |  |  | ≤ 100 nM | ≤ 100 nM | C[C@H](O)c1ccc(-c2nnc(Nc3ccc(Oc4ncccc4-c4ccnc(N)n4)cc3)c3ccccc23)cc1 [compound 257, (1S)-1-(4-(4-((4-((3-(2-amino-4-pyrimidinyl)-2-pyridinyl)oxy)phenyl)amino)-1-phthalazinyl)phenyl)ethanol]
3 |  |  | 500 to 2500 nM | 100 to 500 nM | CN1C[C@@H]2C[C@H]1CN2c1nnc(Nc2ccc(Oc3ncccc3-c3ccnc(N)n3)cc2)c2ccccc12 [compound 258, N-(4-((3-(2-amino-4-pyrimidinyl)-2-pyridinyl)oxy)phenyl)-4-((1S,4S)-5-methyl-2,5-diazabicyclo[2.2.1]hept-2-yl)-1-phthalazinamine]
4 |  |  | ≤ 100 nM | ≤ 100 nM | Nc1nccc(-c2cccnc2Oc2ccc(Nc3ncc(-c4ccc(Cl)cc4)c4ccccc34)cc2)n1 [compound 265, N-(4-((3-(2-amino-4-pyrimidinyl)-2-pyridinyl)oxy)phenyl)-4-(4-chlorophenyl)-1-isoquinolinamine]
5 |  |  | ≤ 100 nM | ≤ 100 nM | Nc1nccc(-c2cccnc2Oc2ccc(Nc3ncc(-c4ccccc4)c4ccccc34)cn2)n1 [compound 266, N-(6-((3-(2-amino-4-pyrimidinyl)-2-pyridinyl)oxy)-3-pyridinyl)-4-phenyl-1-isoquinolinamine]
6 | 96.4 nM | 10.4 nM |  |  | c1ccc(-c2nnc(Nc3ccc(Oc4ncccc4-c4ccnc(NCCCN5CCCCC5)n4)nc3)c3ccccc23)cc1 [compound 267, 4-phenyl-N-(6-((3-(2-((3-(1-piperidinyl)propyl)amino)-4-pyrimidinyl)-2-pyridinyl)oxy)-3-pyridinyl)-1-phthalazinamine]
7 |  |  | 500 to 2500 nM | 500 to 2500 nM | c1ccc(-c2nnc(Nc3ccc(Oc4ncccc4-n4ccnc4)cc3)c3ccccc23)cc1 [compound 268, N-(4-((3-(1H-imidazol-1-yl)-2-pyridinyl)oxy)phenyl)-4-phenyl-1-phthalazinamine]
8 |  |  | ≤ 100 nM | ≤ 100 nM | CC(C)c1nnc(Nc2ccc(Oc3ncccc3-c3ccnc(N)n3)nc2)c2ccccc12 [compound 269, N-(6-((3-(2-amino-4-pyrimidinyl)-2-pyridinyl)oxy)-3-pyridinyl)-4-(1-methylethyl)-1-phthalazinamine]
9 |  |  | ≤ 100 nM | ≤ 100 nM | Cc1cccc(-c2nnc(Nc3ccc(Oc4ncccc4-c4ccnc(N)n4)nc3)c3ccccc23)n1 [compound 270, N-(6-((3-(2-amino-4-pyrimidinyl)-2-pyridinyl)oxy)-3-pyridinyl)-4-(6-methyl-2-pyridinyl)-1-phthalazinamine]
10 | 19.7 nM | 5.5 nM |  |  | Nc1nccc(-c2cccnc2Oc2ccc(Nc3nnc(C4CCCCC4)c4ccccc34)cc2)n1 [compound 272, N-(4-((3-(2-amino-4-pyrimidinyl)-2-pyridinyl)oxy)phenyl)-4-cyclohexyl-1-phthalazinamine]
11 |  |  | 100 to 500 nM | ≤ 100 nM | CC(C)c1nnc(Nc2ccc(Oc3ncccc3-c3ccnc(N)n3)cc2)c2ccccc12 [compound 273, N-(4-((3-(2-amino-4-pyrimidinyl)-2-pyridinyl)oxy)phenyl)-4-(1-methylethyl)-1-phthalazinamine]
12 | 94.9 nM | 13.4 nM |  |  | Cc1cccc(-c2nnc(Nc3ccc(Oc4ncccc4-c4ccnc(NCCCN5CCN(C)CC5)n4)cc3)c3ccccc23)n1 [compound 275, N-(4-((3-(2-((3-(4-methyl-1-piperazinyl)propyl)amino)-4-pyrimidinyl)-2-pyridinyl)oxy)phenyl)-4-(6-methyl-2-pyridinyl)-1-phthalazinamine]
13 |  |  | 100 to 500 nM | ≤ 100 nM | Cc1cccc(-c2nnc(Nc3ccc(Oc4ncccc4-c4ccnc(NCCCN5CCCCC5)n4)cc3)c3ccccc23)n1 [compound 276, 4-(6-methyl-2-pyridinyl)-N-(4-((3-(2-((3-(1-piperidinyl)propyl)amino)-4-pyrimidinyl)-2-pyridinyl)oxy)phenyl)-1-phthalazinamine]
14 | 126 nM | 2.7 nM |  |  | Cc1cccc(-c2nnc(Nc3ccc(Oc4ncccc4-c4ccnc(NCCCN5CCNCC5)n4)cc3)c3ccccc23)n1 [compound 277, 4-(6-methyl-2-pyridinyl)-N-(4-((3-(2-((3-(1-piperazinyl)propyl)amino)-4-pyrimidinyl)-2-pyridinyl)oxy)phenyl)-1-phthalazinamine]
15 |  |  | 500 to 2500 nM | 100 to 500 nM | c1ccc(-c2nnc(Nc3ccc(Oc4ncccc4-c4ccnc5c4CCCN5)cc3)c3ccccc23)cc1 [compound 283, 4-phenyl-N-(4-((3-(5,6,7,8-tetrahydro-1,8-naphthyridin-4-yl)-2-pyridinyl)oxy)phenyl)-1-phthalazinamine]
16 | 167 nM | 191 nM |  |  | Cc1csc(-c2nnc(Nc3ccc(Oc4ncccc4-c4ccnc5c4CCCN5)cc3)c3ccccc23)n1 [compound 284, 4-(4-methyl-1,3-thiazol-2-yl)-N-(4-((3-(5,6,7,8-tetrahydro-1,8-naphthyridin-4-yl)-2-pyridinyl)oxy)phenyl)-1-phthalazinamine]
17 |  |  | 500 to 2500 nM | 100 to 500 nM | Cc1cc(-c2ccccc2)nnc1Nc1ccc(Oc2ncccc2-c2ccnc3c2CCCN3)cc1 [compound 285, 4-methyl-6-phenyl-N-(4-((3-(5,6,7,8-tetrahydro-1,8-naphthyridin-4-yl)-2-pyridinyl)oxy)phenyl)-3-pyridazinamine]
18 | 83.3 nM | 10.3 nM |  |  | c1ccc(-c2nnc(Nc3ccc(Oc4ncccc4-c4ccnc5c4CCN5)cc3)c3ccccc23)cc1 [compound 287, N-(4-((3-(2,3-dihydro-1H-pyrrolo[2,3-b]pyridin-4-yl)-2-pyridinyl)oxy)phenyl)-4-phenyl-1-phthalazinamine]
19 |  |  | ≤ 100 nM | 500 to 2500 nM | Cc1csc(-c2nnc(Nc3ccc(Oc4ncccc4-c4ccnc5c4CCN5)cc3)c3ccccc23)n1 [compound 288, N-(4-((3-(2,3-dihydro-1H-pyrrolo[2,3-b]pyridin-4-yl)-2-pyridinyl)oxy)phenyl)-4-(4-methyl-1,3-thiazol-2-yl)-1-phthalazinamine]
20 | 24.1 nM | 1.9 nM |  |  | Cc1ccc(-c2nnc(Nc3ccc(Oc4ncccc4-c4ccnc(N)n4)nc3)c3ccccc23)nc1 [compound 289, N-(6-((3-(2-amino-4-pyrimidinyl)-2-pyridinyl)oxy)-3-pyridinyl)-4-(5-methyl-2-pyridinyl)-1-phthalazinamine]
21 | 15.7 nM | 3 nM |  |  | CN1CCN(CCCNc2ncc(F)c(-c3cccnc3Oc3ccc(Nc4nnc(-c5ccccc5)c5ccccc45)cc3)n2)CC1 [compound 291, N-(4-((3-(5-fluoro-2-((3-(4-methyl-1-piperazinyl)propyl)amino)-4-pyrimidinyl)-2-pyridinyl)oxy)phenyl)-4-phenyl-1-phthalazinamine]
